Data reported in US11400063B2, “Early administration of low-dose colchicine after myocardial infarction” (INSTITUT DE CARDIOLOGIE DE MONTREAL, priority 2019, dated 2022).

Tested on: patients recruited within 30 days after a myocardial infarction
Test: COLCOT randomized double-blind trial, efficacy end points, colchicine 0.5 mg once daily vs placebo
Format: in vivo, human
Experimental: We performed a randomized, double-blind trial involving patients recruited within 30 days after a myocardial infarction. The patients were randomly assigned to receive either low-dose colchicine (0.5 mg once daily) or placebo. A total of 4745 patients were enrolled; 2386 patients were assigned to the colchicine group, and 2379 to the placebo group. Patients were followed for a median of 22.6 months.
The primary efficacy end point was a composite of death from cardiovascular causes, resuscitated cardiac arrest, myocardial infarction (e.g., acute myocardial infraction or type II myocardial infarction), stroke, or urgent hospitalization for angina leading to coronary revascularization. The components of the primary end point and safety were also assessed.
COLCOT was an international multicenter, randomized, double-blinded trial that randomly assigned patients to receive either low-dose colchicine (0.5 mg once daily) or placebo. The study protocol and main results have been published (see, Tardif et al., N Engl J Med 2019). […] Main exclusion criteria were severe heart failure, reduced left ventricular ejection fraction (<35%), recent stroke (<3 months), type 2 MI, recent (<3 years) or planned coronary artery bypass graft (CABG), history of cancer (<3 years), and inflammatory bowel disease or chronic diarrhea. All patients enrolled in the trial benefited from percutaneous coronary intervention whenever indicated and guidelines-directed management of CV disease prior to randomization (see. Tardif et al., N Engl J Med 2019).
Clinical follow-up consisted of evaluations at 1 and 3 months after randomization and every 3 months thereafter. An independent clinical endpoint committee, blinded to trial-group assignment, adjudicated clinical endpoints. The trial was locally approved by the various institutional review boards, and all patients signed a written informed consent before enrollment.
The primary efficacy endpoint was a composite of CV death, resuscitated cardiac arrest, MI, stroke, or urgent hospitalization for angina requiring coronary revascularization. The secondary endpoints consisted of the components of the primary efficacy endpoint, all-cause death, and a composite of CV death, resuscitated cardiac arrest, MI, or stroke. Exploratory endpoints included all coronary revascularizations, including both elective and urgent coronary revascularizations.
The primary efficacy endpoint was a composite of cardiovascular death, MI, ischemic stroke, and urgent coronary revascularization. Secondary efficacy endpoints consisted of the components of the primary endpoint, composite of cardiovascular death, MI, and ischemic stroke, as well as deep vein thrombosis or pulmonary embolus, and atrial fibrillation (AF). To maximize consistency in pooling efficacy endpoints among trials, the primary and secondary composite efficacy and stroke endpoints in COLCOT were modified to meet the definition of primary and stroke endpoints of the LoDoCo2 trial. Therefore, adjudicated events of resuscitated cardiac arrest and non-ischemic stroke in COLCOT were excluded from the pooled primary endpoint. The component endpoint of stroke was also restricted to include only ischemic strokes. Incidence rates and hazards ratios (HRs) were calculated for the new primary composite endpoint and ischemic stroke endpoint using individual patient data from COLCOT.
The COLCOT trial was performed as follows. A randomized, double-blind trial involving patients recruited within 30 days after a myocardial infarction was performed. The patients were randomly assigned to receive either low-dose colchicine (0.5 mg once daily) or placebo. A total of 4745 patients were enrolled; 2386 patients were assigned to the colchicine group, and 2379 to the placebo group. […]

[1] = per-protocol population, colchicine vs placebo
[2] = subgroup History of diabetes: No
[3] = subgroup History of diabetes: Yes
[4] = subgroup History of hypertension: No
[5] = subgroup History of hypertension: Yes
[6] = subgroup Prior PCI or CABG: Yes
[7] = subgroup Prior stroke or TIA: No
[8] = subgroup Prior stroke or TIA: Yes
[9] = subgroup Smoking: Active smoker
[10] = subgroup Smoking: Previous smoker
[11] = subgroup White blood cell count: Above median
[12] = subgroup White blood cell count: Below median

COc1cc2c(c(OC)c1OC)-c1ccc(OC)c(=O)cc1[C@@H](NC(C)=O)CC2 [Colchicine, colchicine]
Resuscitated cardiac arrest, % of patients (per-protocol population): (0.2%) | Resuscitated cardiac arrest, no. of patients (per-protocol population): 5 no. | Stroke, % of patients (per-protocol population): (0.2%) | Stroke, no. of patients (per-protocol population): 5 no. | Urgent hospitalization for angina requiring revascularization, % of patients (per-protocol population): (1.0%) | Urgent hospitalization for angina requiring revascularization, no. of patients (per-protocol population): 22 no. | Primary endpoint, no. of patients (per-protocol population, N = 2260): 115 no. | MI, Hazard Ratio (95% CI) [1]: 0.84 (0.62-1.14) | Primary endpoint, Hazard Ratio (95% CI) [1]: 0.71 (0.56-0.90) | Resuscitated cardiac arrest, Hazard Ratio (95% CI) [1]: 1.00 (0.29-3.46) | Stroke, Hazard Ratio (95% CI) [1]: 0.26 (0.10-0.71) | Urgent hospitalization for angina requiring revascularization, Hazard Ratio (95% CI) [1]: 0.47 (0.28-0.78) | Primary efficacy composite endpoint, % of patients [2]: (4.8%) | Primary efficacy composite endpoint, Hazard ratio (95% CI) [2]: 0.85 (0.64; 1.13) | Primary efficacy composite endpoint, no. of patients with event/total no. of patients [2]: 91/1904 | Primary efficacy composite endpoint, % of patients [3]: (8.7%) | Primary efficacy composite endpoint, Hazard ratio (95% CI) [3]: 0.65 (0.44; 0.96) | Primary efficacy composite endpoint, no. of patients with event/total no. of patients [3]: 40/462 | Primary efficacy composite endpoint, % of patients [4]: (4.1%) | Primary efficacy composite endpoint, Hazard ratio (95% CI) [4]: 0.80 (0.54; 1.17) | Primary efficacy composite endpoint, no. of patients with event/total no. of patients [4]: 48/1181 | Primary efficacy composite endpoint, % of patients [5]: (7.0%) | Primary efficacy composite endpoint, Hazard ratio (95% CI) [5]: 0.76 (0.57; 1.01) | Primary efficacy composite endpoint, no. of patients with event/total no. of patients [5]: 83/1185 | Primary efficacy composite endpoint, % of patients (subgroup Prior MI: No): (4.3%) | Primary efficacy composite endpoint, Hazard ratio (95% CI) (subgroup Prior MI: No): 0.68 (0.51; 0.89) | Primary efficacy composite endpoint, no. of patients with event/total no. of patients (subgroup Prior MI: No): 85/1996 | Primary efficacy composite endpoint, % of patients (subgroup Prior MI: Yes): (12.4%) | Primary efficacy composite endpoint, Hazard ratio (95% CI) (subgroup Prior MI: Yes): 1.05 (0.70; 1.58) | Primary efficacy composite endpoint, no. of patients with event/total no. of patients (subgroup Prior MI: Yes): 46/370 | Primary efficacy composite endpoint, % of patients (subgroup Prior PCI or CABG: No): (4.3%) | Primary efficacy composite endpoint, Hazard ratio (95% CI) (subgroup Prior PCI or CABG: No): 0.72 (0.54; 0.95) | Primary efficacy composite endpoint, no. of patients with event/total no. of patients (subgroup Prior PCI or CABG: No): 83/1947 | Primary efficacy composite endpoint, % of patients [6]: (11.5%) | Primary efficacy composite endpoint, Hazard ratio (95% CI) [6]: 0.91 (0.62; 1.34) | Primary efficacy composite endpoint, no. of patients with event/total no. of patients [6]: 48/419 | Primary efficacy composite endpoint, % of patients [7]: (5.3%) | Primary efficacy composite endpoint, Hazard ratio (95% CI) [7]: 0.76 (0.60; 0.96) | Primary efficacy composite endpoint, no. of patients with event/total no. of patients [7]: 123/2311 | Primary efficacy composite endpoint, % of patients [8]: (14.5%) | Primary efficacy composite endpoint, Hazard ratio (95% CI) [8]: 1.09 (0.42; 2.82) | Primary efficacy composite endpoint, no. of patients with event/total no. of patients [8]: 8/55 | Primary efficacy composite endpoint, % of patients (subgroup Sex: Female): (7.8%) | Primary efficacy composite endpoint, Hazard ratio (95% CI) (subgroup Sex: Female): 0.99 (0.63; 1.58) | Primary efficacy composite endpoint, no. of patients with event/total no. of patients (subgroup Sex: Female): 37/472 | Primary efficacy composite endpoint, % of patients (subgroup Sex: Male): (5.0%) | Primary efficacy composite endpoint, Hazard ratio (95% CI) (subgroup Sex: Male): 0.70 (0.54; 0.91) | Primary efficacy composite endpoint, no. of patients with event/total no. of patients (subgroup Sex: Male): 94/1894 | Primary efficacy composite endpoint, % of patients [9]: (5.4%) | Primary efficacy composite endpoint, Hazard ratio (95% CI) [9]: 0.93 (0.60; 1.44) | Primary efficacy composite endpoint, no. of patients with event/total no. of patients [9]: 38/708 | Primary efficacy composite endpoint, % of patients (subgroup Smoking: Non-smoker): (6.0%) | Primary efficacy composite endpoint, Hazard ratio (95% CI) (subgroup Smoking: Non-smoker): 0.90 (0.61; 1.34) | Primary efficacy composite endpoint, no. of patients with event/total no. of patients (subgroup Smoking: Non-smoker): 47/787 | Primary efficacy composite endpoint, % of patients [10]: (5.3%) | Primary efficacy composite endpoint, Hazard ratio (95% CI) [10]: 0.59 (0.41; 0.85) | Primary efficacy composite endpoint, no. of patients with event/total no. of patients [10]: 46/871 | Primary efficacy composite endpoint, % of patients [11]: (5.3%) | Primary efficacy composite endpoint, Hazard ratio (95% CI) [11]: 0.80 (0.51; 1.25) | Primary efficacy composite endpoint, no. of patients with event/total no. of patients (subgroup White blood cell count: Above median (8.64 × 10^3/μL)): 34/637 | Primary efficacy composite endpoint, % of patients [12]: (6.2%) | Primary efficacy composite endpoint, Hazard ratio (95% CI) [12]: 0.85 (0.56; 1.29) | Primary efficacy composite endpoint, no. of patients with event/total no. of patients (subgroup White blood cell count: Below median (8.64 × 10^3/μL)): 41/660
